Results: patent US10155764B2, “Therapeutic compounds and uses thereof” (GENENTECH, INC., priority 2014, dated 2018)
pIC50: −log10 of the molar value.

Target: PCAF719-832 bromodomain (Homo sapiens (Human), UniProt Q92831)
Experiment: PCAF AlphaLisa binding assay
Settings: PCAF bromodomain 225 nM, biotinylated small molecule ligand 6 nM

Chain of PCAF719-832 bromodomain (Q92831 719-832): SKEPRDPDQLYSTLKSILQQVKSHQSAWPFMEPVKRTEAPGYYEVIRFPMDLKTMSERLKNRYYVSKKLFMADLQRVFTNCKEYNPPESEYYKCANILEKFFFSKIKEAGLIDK

pIC50 | SMILES
7.39 | CC[C@H](Nc1nn(C)c(=O)c2ccccc12)[C@H](c1ccccc1)N(C)C (single isomer, unassigned) [Example 56]
7.40 | CC[C@H](Nc1nn(C)c(=O)c2cccnc12)[C@H](c1ccccc1)N(C)C (single isomer, unassigned) [Example 58]
7.48 | CC(C)Oc1ccc([C@@H]([C@H](C)Nc2nn(C)c(=O)c3ccccc23)N(C)C)cc1 (single isomer, unassigned) [Example 59]
7.68 | C[C@H](Nc1nn(C)c(=O)c2ccccc12)[C@H](c1ccccn1)N(C)C (single isomer, unassigned) [Example 60]
7.07 | C[C@H](Nc1nn(C)c(=O)c2ccccc12)[C@H](c1cccnc1)N(C)C (single isomer, unassigned) [Example 61]
7.20 | COc1ccc([C@@H]([C@H](C)Nc2nn(C)c(=O)c3ccccc23)N(C)C)cn1 (single isomer, unassigned) [Example 62]
6.54 | C[C@H](Nc1nn(C)c(=O)c2cccnc12)[C@H](c1ccc(Oc2ccccc2)cc1)N(C)C (single isomer, unassigned) [Example 64]
< 5.30 | Cc1cccc2c(N[C@@H](C)[C@H](c3ccccc3)N(C)C)nn(C)c(=O)c12 (single isomer, unassigned) [Example 69A]
6.77 | Cc1cccc2c(N[C@H](C)[C@@H](c3ccccc3)N(C)C)nn(C)c(=O)c12 (single isomer, unassigned) [Example 69B]
7.44 | Cc1cccc2c(=O)n(C)nc(N[C@@H](C)[C@H](c3ccccc3)N(C)C)c12 (single isomer, unassigned) [Example 70A]
5.74 | Cc1cccc2c(=O)n(C)nc(N[C@H](C)[C@@H](c3ccccc3)N(C)C)c12 (single isomer, unassigned) [Example 70B]
< 5.30 | C[C@H](Nc1nn(C)c(=O)c2[nH]ccc12)[C@H](c1ccccc1)N(C)C (single isomer, unassigned) [Example 71A]
7.08 | C[C@@H](Nc1nn(C)c(=O)c2[nH]ccc12)[C@@H](c1ccccc1)N(C)C (single isomer, unassigned) [Example 71B]
7.64 | C[C@H](Nc1nn(C)c(=O)c2ccccc12)[C@H](c1ccccc1)N(C)C (single isomer, unassigned) [Example 73A]
6.17 | C[C@@H](Nc1nn(C)c(=O)c2ccccc12)[C@@H](c1ccccc1)N(C)C (single isomer, unassigned) [Example 73B]
7.40 | CC(Nc1nn(C)c(=O)c2cccnc12)C(c1ccc(S(=O)(=O)c2ccccc2)cc1)N(C)C (single isomer, unassigned) [Example 74, 8-((1-(dimethylamino)-1-(4-(phenylsulfonyl)phenyl)propan-2-yl)amino)-6-methylpyrido[2,3-d]pyridazin-5(6H)-one]
7.70 | C[C@H](Nc1nn(C)c(=O)c2cccnc12)[C@H](c1ccc(S(=O)(=O)c2ccccc2)cc1)N(C)C (single isomer, unassigned) [Example 74A]
5.64 | C[C@@H](Nc1nn(C)c(=O)c2cccnc12)[C@@H](c1ccc(S(=O)(=O)c2ccccc2)cc1)N(C)C (single isomer, unassigned) [Example 74B]
6.89 | CC(Nc1nn(C)c(=O)c2cccnc12)C(c1cn(C)nn1)N(C)C (single isomer, unassigned) [Example 75, 8-((1-(dimethylamino)-1-(1-methyl-1H-1,2,3-triazol-4-yl)propan-2-yl)amino)-6-methylpyrido[2,3-d]pyridazin-5(6H)-one]
7.36 | C[C@H](Nc1nn(C)c(=O)c2ccccc12)[C@H](c1ccc(OCC2CC2)cc1)N(C)C (single isomer, unassigned) [Example 78]
7.14 | COc1ccc([C@@H]([C@H](C)Nc2nn(C)c(=O)c3ccccc23)N(C)C)cc1 (single isomer, unassigned) [Example 79]
7.34 | C[C@H](Nc1nn(C)c(=O)c2ccccc12)[C@H](c1ccc(Oc2ccccn2)cc1)N(C)C (single isomer, unassigned) [Example 80]
7.25 | C[C@H](Nc1nn(C)c(=O)c2cccnc12)[C@H](c1ccc(C(=O)N(C)Cc2ccccc2)cc1)N(C)C (single isomer, unassigned) [Example 84]
7.30 | CNC(=O)c1ccc([C@@H]([C@H](C)Nc2nn(C)c(=O)c3cccnc23)N(C)C)cc1 (single isomer, unassigned) [Example 85]
7.44 | C[C@H](Nc1nn(C)c(=O)c2ccccc12)[C@H](c1ccc(OCc2ccccc2)cc1)N(C)C (stereo in doubt) [Example 77, 4-((1-(4-(benzyloxy)phenyl)-1-(dimethylamino)propan-2-yl)amino)-2-methylphthalazin-1(2H)-one]

pIC50 | SMILES
7.07 | CN(C)C(CNc1nn(C)c(=O)c2cccnc12)c1ccccc1 (centres unmarked) [Example 1, 8-((2-(dimethylamino)-2-phenylethyl)amino)-6-methylpyrido[2,3-d]pyridazin-5(6H)-one]
7.35 | CN(C)[C@H](CNc1nn(C)c(=O)c2cccnc12)c1ccccc1 [Example 1A, (S)-8-((2-(dimethylamino)-2-phenylethyl)amino)-6-methylpyrido[2,3-d]pyridazin-5(6H)-one]
5.66 | CN(C)[C@@H](CNc1nn(C)c(=O)c2cccnc12)c1ccccc1 [Example 1B, (R)-8-((2-(dimethylamino)-2-phenylethyl)amino)-6-methylpyrido[2,3-d]pyridazin-5(6H)-one]
6.85 | CN(C)CCNc1nn(C)c(=O)c2cccnc12 [Example 2, 8-((2-(dimethylamino)ethyl)amino)-6-methylpyrido[2,3-d]pyridazin-5(6H)-one]
6.39 | COc1ccc2c(=O)n(C)nc(NCCN(C)C)c2c1 [Example 3, 4-((2-(dimethylamino)ethyl)amino)-6-methoxy-2-methylphthalazin-1(2H)-one]
6.33 | COc1ccc2c(NCCN(C)C)nn(C)c(=O)c2c1 [Example 4, 4-((2-(dimethylamino)ethyl)amino)-7-methoxy-2-methylphthalazin-1(2H)-one]
6.89 | CN(C)CCNc1nn(C)c(=O)c2cccc(F)c12 [Example 5, 4-((2-(dimethylamino)ethyl)amino)-5-fluoro-2-methylphthalazin-1(2H)-one]
7.06 | CN(C)CCNc1nn(C)c(=O)c2c(F)cccc12 [Example 6, 4-((2-(dimethylamino)ethyl)amino)-8-fluoro-2-methylphthalazin-1(2H)-one]
6.05 | CN(C)CCSc1nn(C)c(=O)c2ccccc12 [Example 9, 4-((2-(dimethylamino)ethyl)thio)-2-methylphthalazin-1(2H)-one]
5.82 | CN1CC(Nc2nn(C)c(=O)c3cccnc23)C1 [Example 18, 6-methyl-8-((1-methylazetidin-3-yl)amino)pyridol[2,3-d]pyridazin-5(6H)-one]
5.47 | Cn1nc(NC2CNC2)c2ncccc2c1=O [Example 19, 8-(azetidin-3-ylamino)-6-methylpyrido[2,3-d]pyridazin-5(6H)-one]
5.62 | CCN(CC)CCNc1nn(C)c(=O)c2ccccc12 [Example 23, 4-((2-(diethylamino)ethyl)amino)-2-methylphthalazin-1(2H)-one]
6.04 | Cn1nc(NCCN2CCCC2)c2ccccc2c1=O [Example 24, 2-methyl-4-((2-(pyrrolidin-1-yl)ethyl)amino)phthalazin-1(2H)-one]
6.82 | CN(C)CCNc1nn(C)c(=O)c2ccccc12 [Example 29, 4-((2-(dimethylamino)ethyl)amino)-2-methylphthalazin-1(2H)-one]
5.03 | CC(C)NCCNc1nn(C)c(=O)c2ccccc12 [Example 40, 4-((2-(isopropylamino)ethyl)amino)-2-methylphthalazin-1(2H)-one]
5.66 | Cn1nc(NCCN2CCCCC2)c2ccccc2c1=O [Example 41, 2-methyl-4-((2-(piperidin-1-yl)ethyl)amino)phthalazin-1(2H)-one]
5.02 | CN1CCN(CCNc2nn(C)c(=O)c3ccccc23)CC1 [Example 42, 2-methyl-4-((2-(4-methylpiperazin-1-yl)ethyl)amino)phthalazin-1(2H)-one]
5.32 | CN(C)[C@@H]1c2ccccc2C[C@@H]1Nc1nn(C)c(=O)c2cccnc12 [Example 46A, 8-(((1R,2S)-1-(dimethylamino)-2,3-dihydro-1H-inden-2-yl)amino)-6-methylpyrido[2,3-d]pyridazin-5(6H)-one]
< 5.30 | CN(C)[C@H]1c2ccccc2C[C@H]1Nc1nn(C)c(=O)c2cccnc12 [Example 46B, 8-(((1S,2R)-1-(dimethylamino)-2,3-dihydro-1H-inden-2-yl)amino)-6-methylpyrido[2,3-d]pyridazin-5(6H)-one]
5.57 | CN(C)[C@@H]1c2ccccc2C[C@@H]1Nc1nn(C)c(=O)c2ccccc12 [Example 47A, 4-(((1R,2S)-1-(dimethylamino)-2,3-dihydro-1H-inden-2-yl)amino)-2-methylphthalazin-1(2H)-one]
< 5.30 | CN(C)[C@H]1c2ccccc2C[C@H]1Nc1nn(C)c(=O)c2ccccc12 [Example 47B, 4-(((1S,2R)-1-(dimethylamino)-2,3-dihydro-1H-inden-2-yl)amino)-2-methylphthalazin-1(2H)-one]
6.35 | CN(C)CCOc1nn(C)c(=O)c2ccccc12 [Example 48, 4-(2-(dimethylamino)ethoxy)-2-methylphthalazin-1(2H)-one]
5.46 | COCCN(C)CCNc1nn(C)c(=O)c2ccccc12 [Example 49, 4-((2-((2-methoxyethyl)(methyl)amino)ethyl)amino)-2-methylphthalazin-1(2H)-one]
6.00 | Cn1nc(NCCN2CCC2)c2ccccc2c1=O [Example 50, 4-((2-(azetidin-1-yl)ethyl)amino)-2-methylphthalazin-1(2H)-one]
6.10 | CN(CCNc1nn(C)c(=O)c2ccccc12)C1COC1 [Example 51, 2-methyl-4-((2-(methyl(oxetan-3-yl)amino)ethyl)amino)phthalazin-1(2H)-one]
